Test results taken from patent US20180289678A1, “PHARMACEUTICAL COMPOSITION, PHARMACEUTICAL DOSAGE FORM, PROCESS FOR THEIR PREPARATION, METHODS FOR TREATING AND USES THEREOF” (Boehringer Ingelheim International GmbH, priority 2009, published 2018).
Where two headings read alike, the source gives them in different places.

Legend:
[1] = Study .3: single dose, cross-over, food effect study in healthy volunteers, pharmacokinetic parameters; assay type: in vivo, human; conditions: 50 mg single dose
Description: (§1) 5. Pharmacokinetic Parameters
(§2) The pharmacokinetic parameters of pharmaceutical compositions and pharmaceutical dosage forms are assessed in healthy volunteer and patient populations. In the studies shown below, the participants fasted on the day of sampling, unless as otherwise stated (see for example study .3). The active substance in the studies below is the compound (I.9), preferably in the crystalline form (I.9X), and the dose of active ingredient is indicated in mg.
(§3) For the quantification of plasma concentrations of the active ingredient, 2.7 mL of blood was collected and transferred into an EDTA (ethylendiaminetetraacetic acid)-anticoagulant blood drawing tube. The EDTA-anticoagulated blood samples were centrifuged immediately after collection. Centrifugation lasted for about 10 minutes (at about 2,000×gf to 4,000×gf) at 4-8° C. or within 30 minutes while stored on ice. Concentrations of active substance in EDTA human plasma samples were quantitated using a HPLC/MS/MS method. The assay method comprised a solid phase supported liquid-liquid extraction of human plasma coupled with HPLC/MS/MS determination of the extracted samples. The HPLC/MS/MS assay was validated for the range of 1.11 to 1110 nM in human plasma.
(§4) Study .3: Single dose, cross-over, food effect study in a healthy volunteer population of N=14. Healthy volunteers were administered tablets as described in Example 10 (section Examples of formulations).
(§5) AUC0-inf:area under the concentration-time curve of the analyte in plasma over the time interval from 0 extrapolated to infinity.
(§6) Cmax: maximum concentration of the analyte in plasma.
(§7) Tmax: time from dosing to maximum concentration.

[2] = Pharmacokinetic profile in fasting humans, ranges over Studies .1 to .5; assay type: in vivo; conditions: human, plasma, oral
Description: as §1, §2, §3
Study .1: Single dose study in a healthy volunteer population of N=72. Healthy volunteers were administered tablets as described in Example 10 (section Examples of formulations).
Study .2: Multiple rising dose trial in a diabetic patient population of N=48, once daily administration for 8 days. Patients were administered tablets as described in Example 10 (section Examples of formulations).
as §4
Study .4: 4-week treatment of a diabetic patient population of N=78, once daily administration for 4 weeks. Patients were administered tablets as described in Example 10 (section Examples of formulations).
Study .5: Single dose study in a healthy volunteer population of N=48 (Japanese volunteers). Healthy volunteers were administered tablets as described in Example 11 (section Examples of formulations).
as §5, §6, §7
AUCT,SS:area under the concentration-time curve of the analyte in plasma over the time interval from 0 to 24 h at steady-state.
Cmax,ss:maximum concentration of the analyte in plasma at steady state over a uniform dosing interval.
tmax,ss:time from dosing to maximum concentration at steady state.

AUC0-inf Max ([1]; Study .3/fasted): 14.1 µM·h
AUC0-inf Min ([1]; Study .3/fasted): 6.45 µM·h
AUC0-inf,norm Max ([1]; Study .3/fasted): 282 nmol·h/L/mg
AUC0-inf,norm Median ([1]; Study .3/fasted): 159 nmol·h/L/mg
AUC0-inf,norm Min ([1]; Study .3/fasted): 129 nmol·h/L/mg
AUC0-inf,norm gMean ([1]; Study .3/fasted): 166 nmol·h/L/mg
Cmax,norm Max ([1]; Study .3/fasted): 40 nmol/L/mg
Cmax,norm Median ([1]; Study .3/fasted): 20 nmol/L/mg
Cmax,norm Min ([1]; Study .3/fasted): 18 nmol/L/mg
Cmax,norm gMean ([1]; Study .3/fasted): 23 nmol/L/mg
tmax Max ([1]; Study .3/fasted): 4.07 h
tmax Min ([1]; Study .3/fasted): 45 min
Cmax ([1]; Study .3/fasted, read-out: Cmax Max): 2020 nM
Cmax ([1]; Study .3/fasted, read-out: Cmax Min): 878 nM
AUC0-inf Max ([1]; Study .3/fed): 10.8 µM·h
AUC0-inf Min ([1]; Study .3/fed): 5.06 µM·h
AUC0-inf,norm Max ([1]; Study .3/fed): 216 nmol·h/L/mg
AUC0-inf,norm Median ([1]; Study .3/fed): 150 nmol·h/L/mg
AUC0-inf,norm Min ([1]; Study .3/fed): 101 nmol·h/L/mg
AUC0-inf,norm gMean ([1]; Study .3/fed): 149 nmol·h/L/mg
Cmax,norm Max ([1]; Study .3/fed): 21 nmol/L/mg
Cmax,norm Median ([1]; Study .3/fed): 17 nmol/L/mg
Cmax,norm Min ([1]; Study .3/fed): 9 nmol/L/mg
Cmax,norm gMean ([1]; Study .3/fed): 16 nmol/L/mg
tmax Max ([1]; Study .3/fed): 4.00 h
tmax Min ([1]; Study .3/fed): 60 min
Cmax ([1]; Study .3/fed, read-out: Cmax Max): 1070 nM
Cmax ([1]; Study .3/fed, read-out: Cmax Min): 436 nM
AUC(0-inf) ([1]; human, plasma, oral, 50 mg, Study .3/fasted, read-out: AUC0-inf Mean): 8.51 µM·h
AUC(0-inf) ([1]; human, plasma, oral, 50 mg, Study .3/fasted, read-out: AUC0-inf Median): 7.93 µM·h
AUC(0-inf) ([1]; human, plasma, oral, 50 mg, Study .3/fasted, read-out: AUC0-inf gMean): 8.31 µM·h
Cmax ([1]; human, plasma, oral, 50 mg, Study .3/fasted, read-out: Cmax Mean): 1180 nM
Cmax ([1]; human, plasma, oral, 50 mg, Study .3/fasted, read-out: Cmax Median): 1010 nM
Cmax ([1]; human, plasma, oral, 50 mg, Study .3/fasted, read-out: Cmax gMean): 1140 nM
Tmax ([1]; human, plasma, oral, 50 mg, Study .3/fasted, read-out: tmax Mean): 1.53 h
Tmax ([1]; human, plasma, oral, 50 mg, Study .3/fasted, read-out: tmax Median): 1.02 h
Tmax ([1]; human, plasma, oral, 50 mg, Study .3/fasted, read-out: tmax gMean): 1.29 h
AUC(0-inf) ([1]; human, plasma, oral, 50 mg, Study .3/fed, read-out: AUC0-inf Mean): 7.59 µM·h
AUC(0-inf) ([1]; human, plasma, oral, 50 mg, Study .3/fed, read-out: AUC0-inf Median): 7.49 µM·h
AUC(0-inf) ([1]; human, plasma, oral, 50 mg, Study .3/fed, read-out: AUC0-inf gMean): 7.46 µM·h
Cmax ([1]; human, plasma, oral, 50 mg, Study .3/fed, read-out: Cmax Mean): 824 nM
Cmax ([1]; human, plasma, oral, 50 mg, Study .3/fed, read-out: Cmax Median): 830 nM
Cmax ([1]; human, plasma, oral, 50 mg, Study .3/fed, read-out: Cmax gMean): 806 nM
Tmax ([1]; human, plasma, oral, 50 mg, Study .3/fed, read-out: tmax Mean): 2.46 h
Tmax ([1]; human, plasma, oral, 50 mg, Study .3/fed, read-out: tmax Median): 2.48 h
Tmax ([1]; human, plasma, oral, 50 mg, Study .3/fed, read-out: tmax gMean): 2.18 h
AUC ([2]; 2.5 mg, dose of 2.5 mg, read-out: AUC): 0.283 to 0.677 µM·h
Cmax ([2]; 2.5 mg, dose of 2.5 mg, read-out: Cmax): 40.3 to 96.3 nM
AUC ([2]; 2.5 mg, dose of 2.5 mg, read-out: geometric mean AUC): 0.394 to 0.468 µM·h
Cmax ([2]; 2.5 mg, dose of 2.5 mg, read-out: geometric mean Cmax): 52.9 to 66.6 nM
AUC ([2]; 2.5 mg, multiple doses of 2.5 mg, read-out: AUCτ,ss): 0.283 to 0.677 µM·h
Cmax ([2]; 2.5 mg, multiple doses of 2.5 mg, read-out: Cmax,ss): 40.3 to 96.3 nM
AUC(0-inf) ([2]; 2.5 mg, single dose of 2.5 mg, read-out: AUC0-inf): 0.326 to 0.631 µM·h
Cmax ([2]; 2.5 mg, single dose of 2.5 mg, read-out: Cmax): 42.8 to 81.2 nM
AUC(0-inf) ([2]; 2.5 mg, single dose of 2.5 mg, read-out: geometric mean AUC0-inf): 0.394 to 0.468 µM·h
Cmax ([2]; 2.5 mg, single dose of 2.5 mg, read-out: geometric mean Cmax): 52.9 to 61.3 nM
AUC ([2]; 5 mg, dose of 5.0 mg, read-out: AUC): 1 to 1.31 µM·h
Cmax ([2]; 5 mg, dose of 5.0 mg, read-out: Cmax): 123 to 230 nM
AUC(0-inf) ([2]; 5 mg, single dose of 5.0 mg, read-out: AUC0-inf): 1 to 1.31 µM·h
Cmax ([2]; 5 mg, single dose of 5.0 mg, read-out: Cmax): 123 to 230 nM
AUC ([2]; 10 mg, dose of 10.0 mg, read-out: AUC): 1.17 to 3.19 µM·h
Cmax ([2]; 10 mg, dose of 10.0 mg, read-out: Cmax): 143 to 796 nM
AUC ([2]; 10 mg, dose of 10.0 mg, read-out: geometric mean AUC): 1.69 to 2.66 µM·h
Cmax ([2]; 10 mg, dose of 10.0 mg, read-out: geometric mean Cmax): 221 to 372 nM
AUC ([2]; 10 mg, multiple doses of 10.0 mg, read-out: AUCτ,ss): 1.35 to 2.6 µM·h
Cmax ([2]; 10 mg, multiple doses of 10.0 mg, read-out: Cmax,ss): 166 to 479 nM
AUC ([2]; 10 mg, multiple doses of 10.0 mg, read-out: geometric mean AUCτ,ss): 1.85 to 2 µM·h
Cmax ([2]; 10 mg, multiple doses of 10.0 mg, read-out: geometric mean Cmax,ss): 252 to 272 nM
AUC(0-inf) ([2]; 10 mg, single dose of 10.0 mg, read-out: AUC0-inf): 1.17 to 3.19 µM·h
Cmax ([2]; 10 mg, single dose of 10.0 mg, read-out: Cmax): 143 to 796 nM
AUC(0-inf) ([2]; 10 mg, single dose of 10.0 mg, read-out: geometric mean AUC0-inf): 1.69 to 2.66 µM·h
Cmax ([2]; 10 mg, single dose of 10.0 mg, read-out: geometric mean Cmax): 221 to 372 nM
AUC ([2]; 25 mg, dose of 25.0 mg, read-out: AUC): 2.66 to 7.64 µM·h
Cmax ([2]; 25 mg, dose of 25.0 mg, read-out: Cmax): 334 to 1030 nM
AUC ([2]; 25 mg, dose of 25.0 mg, read-out: geometric mean AUC): 3.75 to 6.13 µM·h
Cmax ([2]; 25 mg, dose of 25.0 mg, read-out: geometric mean Cmax): 490 to 709 nM
AUC ([2]; 25 mg, multiple doses of 25.0 mg, read-out: AUCτ,ss): 2.79 to 7.64 µM·h
Cmax ([2]; 25 mg, multiple doses of 25.0 mg, read-out: Cmax,ss): 443 to 907 nM
AUC ([2]; 25 mg, multiple doses of 25.0 mg, read-out: geometric mean AUCτ,ss): 4.64 to 4.89 µM·h
Cmax ([2]; 25 mg, multiple doses of 25.0 mg, read-out: geometric mean Cmax,ss): 622 to 676 nM
AUC(0-inf) ([2]; 25 mg, single dose of 25.0 mg, read-out: AUC0-inf): 2.66 to 7.17 µM·h
Cmax ([2]; 25 mg, single dose of 25.0 mg, read-out: Cmax): 334 to 1030 nM
AUC(0-inf) ([2]; 25 mg, single dose of 25.0 mg, read-out: geometric mean AUC0-inf): 3.75 to 6.13 µM·h
Cmax ([2]; 25 mg, single dose of 25.0 mg, read-out: geometric mean Cmax): 490 to 709 nM
AUC ([2]; 50 mg, dose of 50.0 mg, read-out: AUC): 6.45 to 14.1 µM·h
Cmax ([2]; 50 mg, dose of 50.0 mg, read-out: Cmax): 722 to 2020 nM
AUC ([2]; 50 mg, dose of 50.0 mg, read-out: geometric mean AUC): 8.31 to 8.46 µM·h
Cmax ([2]; 50 mg, dose of 50.0 mg, read-out: geometric mean Cmax): 1080 to 1140 nM
AUC(0-inf) ([2]; 50 mg, single dose of 50.0 mg, read-out: AUC0-inf): 6.45 to 14.1 µM·h
Cmax ([2]; 50 mg, single dose of 50.0 mg, read-out: Cmax): 722 to 2020 nM
AUC(0-inf) ([2]; 50 mg, single dose of 50.0 mg, read-out: geometric mean AUC0-inf): 8.31 to 8.46 µM·h
Cmax ([2]; 50 mg, single dose of 50.0 mg, read-out: geometric mean Cmax): 1080 to 1140 nM
Compound: OC[C@H]1O[C@@H](c2ccc(Cl)c(Cc3ccc(O[C@H]4CCOC4)cc3)c2)[C@H](O)[C@@H](O)[C@@H]1O [Compound (I.9), 1-chloro-4-(β-D-glucopyranos-1-yl)-2-[4-((S)-tetrahydrofuran-3-yloxy)-benzyl]-benzene]
